From publication PMC5164944 (Biochemical pharmacology, 2016)
Read-outs that look alike come from different tables or passages of the source. Marks after values point to notes of the source that are not given here.

What was measured:
[1] = Plasma protein binding by ultracentrifugation; assay type: in vitro ADME, human; conditions: unbound fraction in plasma
CYP2D6 [2] = target: T1, CYP2D6 (Homo sapiens, UniProt P10635); experiment: Static prediction of in vivo reversible CYP2D6 inhibition; conditions: for share of the predicted CYP2D6 inhibition in vivo caused by the compound: reversible inhibition only
CYP2D6 mRNA [3] = experiment: CYP2D6 mRNA in plated human hepatocytes; conditions: for mean CYP2D6 mRNA levels, % of vehicle treated cells: three donors, 72 hours
[4] = Partitioning into human suspension hepatocytes; conditions: 1 μM, 30 min, total concentrations
CYP2D6 mRNA [5] = experiment: CYP2D6 mRNA downregulation in HepG2 cells; conditions: for EC50: read-out: EC50 of CYP2D6 mRNA downregulation, 72 hrs
CYP2D6 [6] = target: T1, CYP2D6; experiment: CYP2D6 activity in plated human hepatocytes; conditions: after 72 hr treatment
[7] = Steady state plasma concentrations in subjects on chronic bupropion XL; conditions: for Mean [I] (Range, n=5): 5 subjects, normalized to 300 mg/day bupropion dose
[8] = Media concentrations of bupropion and metabolites in plated human hepatocytes; conditions: for concentration of metabolite formed in bupropion treated cells: plated human hepatocytes treated with bupropion 2.5 μM; for Cmedia at 72 hr: 1 hr incubation after 71 hours treatment; for Cmedia at 1 hr: after 1 hr incubation without pretreatment
CYP2D6 [9] = target: T1, CYP2D6; conditions: from HepG2 Emax/EC50 and circulating concentrations, 300 mg/day bupropion
[10] = system: CYP2D6 protein expression; experiment: CYP2D6 protein expression in HepG2 cells; conditions: 72 hrs; for effect on CYP2D6 protein expression: erythrohydrobupropion 5 μM, threohydrobupropion 20 μM, R,R-OH-bupropion 20 μM
CYP2D6 [11] = target: T1, CYP2D6; experiment: Reversible CYP2D6 inhibition in human liver microsomes; conditions: for effect on CYP2D6 activity: 50 μM test concentration, HLM
CYP2D6 [12] = conditions: cited from earlier work
CYP3A4 mRNA = CYP3A4 mRNA in plated human hepatocytes; assay type: cell-based; conditions: 72 hours
[13] = cited from earlier work
[14] = female, human, 2.5 μM
CYP2D6 mRNA [15] = experiment: in vitro; conditions: human
CYP2D6 [16] = target: T1, CYP2D6; experiment: CYP2D6 inhibition in human suspension hepatocytes

T1 sequence (P10635 whole entry): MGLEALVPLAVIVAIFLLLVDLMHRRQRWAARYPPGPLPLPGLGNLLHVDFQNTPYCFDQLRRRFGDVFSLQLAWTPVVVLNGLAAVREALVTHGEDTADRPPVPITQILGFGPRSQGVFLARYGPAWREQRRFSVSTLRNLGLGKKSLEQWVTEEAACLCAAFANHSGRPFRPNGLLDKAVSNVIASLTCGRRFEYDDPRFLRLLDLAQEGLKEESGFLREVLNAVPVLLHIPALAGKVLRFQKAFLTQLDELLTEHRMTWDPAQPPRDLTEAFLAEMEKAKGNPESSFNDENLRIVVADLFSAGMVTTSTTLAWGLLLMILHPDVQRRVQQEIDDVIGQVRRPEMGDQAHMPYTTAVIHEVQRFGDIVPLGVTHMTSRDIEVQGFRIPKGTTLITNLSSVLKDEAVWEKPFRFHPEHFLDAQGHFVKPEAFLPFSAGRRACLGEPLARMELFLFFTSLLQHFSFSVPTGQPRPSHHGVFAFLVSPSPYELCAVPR

In the case of C[C@H](NC(C)(C)C)[C@@H](O)c1cccc(Cl)c1 [Threo-hydrobupropion, threohydrobupropion], the “fu,p (S.D. n=3)” value [1] is reported as 1.0±0.1, the “share of the predicted CYP2D6 inhibition in vivo caused by the compound” value (“share of the predicted CYP2D6 inhibition” below) (CYP2D6 [2]) is reported as “approximately 21%” and the “% decrease in CYP2D6 mRNA at 72 hrs” value (CYP2D6 mRNA [3]) is reported as 82%. For the same compound, the “mean CYP2D6 mRNA levels, % of vehicle treated cells” value (from here on “mean CYP2D6 mRNA levels, %”) (CYP2D6 mRNA [3]) was 18%, the “cell concentration fold higher than medium” value [4] was 11 fold and the “maximum decrease in CYP2D6 mRNA” value (CYP2D6 mRNA [5]; 72 hrs) was 78%. For the same compound, the “fold less potent in downregulating CYP2D6 mRNA than the other compounds” value (CYP2D6 mRNA [5]; based on EC50) was 10–50 fold, the EC50 (CYP2D6 mRNA [5]) was 9950 nM and the “Apparent Percent Inhibition at 72 hrs” value (CYP2D6 [6]) was 92 ± 2%. For the same compound, the “steady state concentration fold higher than erythrohydrobupropion” value ([7]; average steady state plasma) was 7.2 fold, the “Mean [I] (Range, n=5)” value ([7]; steady state plasma) was 2.1 (1.1–3.5) μM and the “concentration of metabolite formed in bupropion treated cells” value (shortened to “concentration of metabolite formed”) [8] was 1400 nM. The “Cmedia at 72 hr” value ([8]; plated human hepatocytes) was 8.2 ± 1.4 µM, the “Cmedia at 1 hr” value ([8]; plated human hepatocytes) was 7.1 ± 0.6 µM and the “predicted decrease in CYP2D6 mRNA if compound acted alone at steady state” value (CYP2D6 [9]) was 14%.

For C[C@H](NC(C)(C)C)C(=O)c1cccc(Cl)c1 [S-Bupropion, S-bupropion, reference compound], the “fu,p (S.D. n=3)” value [1] was 0.6±0.1 and the “Mean [I] (Range, n=5)” value ([7]; steady state plasma) was 0.08 ^* (0.02–0.11) μM.

In the case of C[C@@H]1NC(C)(C)CO[C@@]1(O)c1cccc(Cl)c1 [S,S-OH-bupropion], the “fu,p (S.D. n=3)” value [1] is reported as 0.5±0.1, the “% decrease in CYP2D6 mRNA at 72 hrs” value (CYP2D6 mRNA [3]) is reported as 74% and the “mean CYP2D6 mRNA levels, %” value (CYP2D6 mRNA [3]) is reported as 26%. The “maximum decrease in CYP2D6 mRNA” value (CYP2D6 mRNA [5]; 72 hrs) was 85–88%, the EC50 (CYP2D6 mRNA [5]) was 200 nM and the “downregulation of CYP2D6 protein expression” value ([10]; 5 μM, western blot) was > 50%. For the same compound, the “Apparent Percent Inhibition at 72 hrs” value (CYP2D6 [6]) was 60 ± 11%, the “circulating concentration fold higher than S-bupropion” value ([7]; steady state plasma) was ~3 fold and the “circulating concentration fold lower than threohydrobupropion” value ([7]; steady state plasma) was “about 6 fold”. The “Mean [I] (Range, n=5)” value ([7]; steady state plasma) was 0.39 ^* (0.26–0.67) μM, the “Cmedia at 72 hr” value ([8]; plated human hepatocytes) was 1.5 ± 0.2 µM and the “Cmedia at 1 hr” value ([8]; plated human hepatocytes) was 1.3 ± 0.1 µM.

For C[C@@H](NC(C)(C)C)C(=O)c1ccc(O)c(Cl)c1 [4′OH-bupropion, 4′-OH-bupropion], the “Mean [I] (Range, n=5)” value ([7]; steady state plasma) was 0.01 µM and the “effect on CYP2D6 activity” value (CYP2D6 [11]) was “no effect”.

In the case of COc1ccc(C(CN(C)C)C2(O)CCCCC2)cc1 (stereo not shown) [venlafaxine], the “fraction metabolized by CYP2D6 (fm)” value (CYP2D6 [12]) is listed as 80%.

With C[C@@H](NC(C)(C)C)C(=O)c1cccc(Cl)c1 [R-Bupropion, R-bupropion, reference compound] the “fu,p (S.D. n=3)” value [1] was 0.5±0.1 and the “Mean [I] (Range, n=5)” value ([7]; steady state plasma) was 0.22 (0.05–0.34) μM.

For C[C@H]1NC(C)(C)CO[C@]1(O)c1cccc(Cl)c1 [R,R-OH-bupropion], the “fu,p (S.D. n=3)” value [1] was 0.5±0.1, the “fold higher I/Ki than S,S-OH-bupropion” value (CYP2D6 [2]) was 36 fold and the “share of the predicted CYP2D6 inhibition” value (CYP2D6 [2]) was 65%. For the same compound, the “change in CYP3A4 mRNA” value (CYP3A4 mRNA) was “significantly increased CYP3A4 mRNA”, the “R,R-OH-bupropion to S,S-OH-bupropion ratio” value ([13]; single dose AUCs) was 44–65 and the “circulating concentration fold higher than bupropion and S,S-OH-bupropion” value ([13]; single dose of bupropion) was “up to 65 fold”. The “% decrease in CYP2D6 mRNA at 72 hrs” value (CYP2D6 mRNA [3]) was 72%, the “mean CYP2D6 mRNA levels, %” value (CYP2D6 mRNA [3]) was 28% and the “effect on CYP2D6 mRNA” value (CYP2D6 mRNA [5]; 5-50 μM, 72 hrs) was “weakest effect”. For the same compound, the “effect on CYP2D6 protein expression” value [10] was “no effect”, the “Apparent Percent Inhibition at 72 hrs” value (CYP2D6 [6]) was 83 ± 3% and the “steady state concentration ratio R,R-OH-bupropion / S,S-OH-bupropion” value ([7]; steady state plasma) was 13 fold. For the same compound, the “Mean [I] (Range, n=5)” value ([7]; steady state plasma) was 5.0 (3.0–9.4) μM, the “Cmedia at 72 hr” value ([8]; plated human hepatocytes) was 19 ± 3 µM and the “Cmedia at 1 hr” value ([8]; plated human hepatocytes) was 16 ± 1 µM. The “reduction of media concentration at the end of the pretreatment” value ([8]; plated human hepatocytes, versus initial media concentration added) was 33% and the “fold more potent CYP2D6 inhibitor than S,S-OH-bupropion” value (CYP2D6 [11]; based on IC50 values in HLM) was 3 fold.

In the case of CNCCCN1c2ccccc2CCc2ccccc21 [desipramine], the “fraction metabolized by CYP2D6 (fm)” value (CYP2D6 [12]) is given as 90%.

With CC(NC(C)(C)C)C(=O)c1cccc(Cl)c1 (stereo not shown) [Bupropion] the “reduction of media concentration at the end of the pretreatment” value ([14]; 71 h) was 93%, the “Cmedia at 72 hr” value ([14]; 72 h) was 1.7 ± 0.5 µM and the EC50 at 72 h (CYP2D6 mRNA [15]) was 210 nM. For the same compound, the IC50 (CYP2D6 [16]) was 13000 nM.

In the case of C[C@H]1NC(C)(C)CO[C@]1(O)c1cccc(Cl)c1 [OH-bupropion, hydroxybupropion], the “cell concentration fold higher than medium” value [4] is reported as 11 fold and the “concentration of metabolite formed” value [8] is reported as 120 nM.

With CC(NC(C)(C)C)C(O)c1ccc(O)c(Cl)c1 (stereo not drawn) [threo-4′OH-bupropion, threo-4′-OH-hydrobupropion] the “effect on CYP2D6 activity” value (CYP2D6 [11]) was “no effect”.

In the case of CC(NC(C)(C)C)C(O)c1cccc(Cl)c1 (stereo not drawn) [Erythro-hydrobupropion, erythrohydrobupropion], the “fu,p (S.D. n=3)” value [1] is reported as 0.7±0.1, the “share of the predicted CYP2D6 inhibition” value (CYP2D6 [2]) is reported as 9% and the “% decrease in CYP2D6 mRNA at 72 hrs” value (CYP2D6 mRNA [3]) is reported as 80%. For the same compound, the “mean CYP2D6 mRNA levels, %” value (CYP2D6 mRNA [3]) was 20%, the “cell concentration fold higher than medium” value [4] was 9 fold and the “maximum decrease in CYP2D6 mRNA” value (CYP2D6 mRNA [5]; 72 hrs) was 85%. The EC50 (CYP2D6 mRNA [5]) was 1110 nM, the “effect on CYP2D6 protein expression” value [10] was “slightly less effective” and the “Apparent Percent Inhibition at 72 hrs” value (CYP2D6 [6]) was 93 ± 1%. For the same compound, the “circulating concentration fold higher than S-bupropion” value ([7]; steady state plasma) was ~3 fold, the “circulating concentration fold lower than threohydrobupropion” value ([7]; steady state plasma) was “about 6 fold” and the “Mean [I] (Range, n=5)” value ([7]; steady state plasma) was 0.29 (0.19–0.41) μM. The “concentration of metabolite formed” value [8] was 80 nM, the “Cmedia at 72 hr” value ([8]; plated human hepatocytes) was 2.1 ± 0.3 µM and the “Cmedia at 1 hr” value ([8]; plated human hepatocytes) was 1.6 ± 0.1 µM. For the same compound, the “predicted decrease in CYP2D6 mRNA if compound acted alone at steady state” value (CYP2D6 [9]) was 18% and the “fold more potent CYP2D6 inhibitor than threohydrobupropion” value (CYP2D6 [11]; based on IC50 values in HLM) was ~10 fold.
